SMILES strings stand for the structures. pIC50, pKi: −log10 of the molar value. Bounds are passed on as bounds.

In patent publication US10829481B2, “Benzimidazole derivatives as modulators of ROR-gamma” (Vitae Pharmaceuticals, LLC, priority 2016, dated 2020) one finds Ki and IC50 data, which are given here for 26 molecules.

Assay [1] concerns the target recombinant RORγ Ligand Binding Domain (LBD) protein (Homo sapiens (Human), UniProt P51449). Nature of the assay: Radio-Ligand RORγ Binding Assay (Assay 1). The settings on record: competition with 25-hydroxy [26,27-3H]-cholesterol, SPA. The procedure, abridged: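 His-GST-fused RORγ ligand-binding domain (24 nM solution) competed between compounds and tritiated 25-hydroxycholesterol (8.6 nM solution), read by SPA after brief rt incubations in pH 7.4 HEPES/glycerol/detergent buffer. Four-parameter curve fitting gave IC50 at inflection, converted to Ki using radioligand concentration and KD.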

Assay [2] concerns the target full-length RORγt in Jurkat cells (Homo sapiens (Human), UniProt P51449). Nature of the assay: RORγt 5×RORE Assay in Jurkat Cells (Assay 2). The settings on record: 5×RORE Nanoluc luciferase reporter. Type of assay: cell-based. (In general: In a reporter assay the amount or activity of a reporter protein is the signal.)

recombinant RORγ Ligand Binding Domain (LBD) protein, sequence (P51449 269-508): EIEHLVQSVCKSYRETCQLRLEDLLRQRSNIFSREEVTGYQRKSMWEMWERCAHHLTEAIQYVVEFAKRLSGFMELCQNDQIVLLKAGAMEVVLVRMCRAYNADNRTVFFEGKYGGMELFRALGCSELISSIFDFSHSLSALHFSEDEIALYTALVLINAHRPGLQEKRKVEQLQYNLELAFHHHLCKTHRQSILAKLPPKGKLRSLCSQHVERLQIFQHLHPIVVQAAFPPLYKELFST
full-length RORγt in Jurkat cells, sequence (P51449 other isoform, or with tags, fused parts or gaps): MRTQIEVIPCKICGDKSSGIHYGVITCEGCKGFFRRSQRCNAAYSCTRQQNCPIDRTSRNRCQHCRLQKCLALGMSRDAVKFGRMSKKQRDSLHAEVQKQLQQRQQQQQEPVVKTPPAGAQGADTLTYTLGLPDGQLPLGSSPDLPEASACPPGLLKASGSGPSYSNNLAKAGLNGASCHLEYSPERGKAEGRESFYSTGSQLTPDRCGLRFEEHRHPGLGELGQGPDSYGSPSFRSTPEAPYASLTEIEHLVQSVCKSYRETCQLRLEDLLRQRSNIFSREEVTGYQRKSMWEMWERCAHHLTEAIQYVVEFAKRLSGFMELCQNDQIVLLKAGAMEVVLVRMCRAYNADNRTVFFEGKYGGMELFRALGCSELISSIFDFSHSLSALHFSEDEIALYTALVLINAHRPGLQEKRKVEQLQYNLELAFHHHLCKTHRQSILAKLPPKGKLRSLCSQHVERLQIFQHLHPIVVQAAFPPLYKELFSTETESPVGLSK

As usually defined, the pKi is the negative decadic logarithm of the Ki, by convention in mol/L. For orientation: pIC50 means −log10 of the IC50, conventionally taken in molar units. Low values mean a high IC50, high ones a low IC50. In the case of `CCS(=O)(=O)c1ccc(CNC(=O)c2ccc3c(c2)nc(C(F)(F)F)n3Cc2ccc(C#N)cc2)cc1` [I-85, 1-(4-cyanobenzyl)-N-(4-(ethylsulfonyl)benzyl)-2-(trifluoromethyl)-1H-benzo[d]imidazole-5-carboxamide], the pKi in assay [1] was > 7.00. The negative logarithm of the IC50 (pIC50) in assay [2] was < 6.00.

On to `CCS(=O)(=O)c1ccc(CNC(=O)c2ccc3c(c2)nc(C(F)(F)F)n3Cc2cccc(OC)c2)cc1` [I-88, N-(4-(ethylsulfonyl)benzyl)-1-(3-methoxybenzyl)-2-(trifluoromethyl)-1H-benzo[d]imidazole-5-carboxamide], for which the pKi in assay [1] is > 7.00. In addition, in assay [2], the pIC50 was > 7.00.

Regarding `CCS(=O)(=O)c1ccc(CNC(=O)c2ccc3c(c2)nc(C(F)(F)F)n3Cc2ccnc(OC)c2)cc1` [I-89, N-(4-(ethylsulfonyl)benzyl)-1-((2-methoxypyridin-4-yl)methyl)-2-(trifluoromethyl)-1H-benzo[d]imidazole-5-carboxamide], the pKi in assay [1] is > 7.00. In assay [2], this molecule gave a pIC50 of 6.00 to 7.00.

For the molecule `CCS(=O)(=O)c1ccc(CNC(=O)c2ccc3c(c2)nc(C(F)(F)F)n3Cc2cccc(C#N)c2)cc1` [I-90, 1-(3-cyanobenzyl)-N-(4-(ethylsulfonyl)benzyl)-2-(trifluoromethyl)-1H-benzo[d]imidazole-5-carboxamide], in assay [1], the negative-log Ki (pKi) is > 7.00. In assay [2], the pIC50 is > 7.00.

Regarding `CCS(=O)(=O)c1ccc(CNC(=O)c2ccc3c(c2)nc(C(F)(F)F)n3C2(c3cccc(C#N)c3)CC2)cc1` [I-92, 1-(1-(3-cyanophenyl)cyclopropyl)-N-(4-(ethylsulfonyl)benzyl)-2-(trifluoromethyl)-1H-benzo[d]imidazole-5-carboxamide], the pKi in assay [1] is > 7.00. In assay [2], the pIC50 is 6.00 to 7.00.

For `CCS(=O)(=O)c1ccc(CNC(=O)c2ccc3c(c2)nc(C(F)(F)F)n3[C@@H](C)c2cccc(C#N)c2)cc1` [I-93.1, (S)-1-(1-(3-cyanophenyl)ethyl)-N-(4-(ethylsulfonyl)benzyl)-2-(trifluoromethyl)-1H-benzo[d]imidazole-5-carboxamide], the pKi in assay [1] was > 7.00. In assay [2], the pIC50 was > 7.00.

As to `CCS(=O)(=O)c1ccc(CNC(=O)c2ccc3c(c2)nc(C(F)(F)F)n3Cc2cc(C#N)ccc2F)cc1` [I-94, 1-(5-cyano-2-fluorobenzyl)-N-(4-(ethylsulfonyl)benzyl)-2-(trifluoromethyl)-1H-benzo[d]imidazole-5-carboxamide], in assay [1], the pKi was > 7.00. In assay [2], this molecule showed a pIC50 of 6.00 to 7.00.

For the molecule `CCS(=O)(=O)c1ccc(CNC(=O)c2ccc3c(c2)nc(C(F)(F)F)n3Cc2cccc3occc23)cc1` [I-95, 1-(benzofuran-4-ylmethyl)-N-(4-(ethylsulfonyl)benzyl)-2-(trifluoromethyl)-1H-benzo[d]imidazole-5-carboxamide], the pKi in assay [1] is > 7.00. For the same molecule, in assay [2], the pIC50 was > 7.00.

Take `CCS(=O)(=O)c1ccc(CNC(=O)c2ccc3c(c2)nc(C(F)(F)F)n3Cc2cccc3[nH]ncc23)cc1` [I-97, 1-((1H-indazol-4-yl)methyl)-N-(4-(ethylsulfonyl)benzyl)-2-(trifluoromethyl)-1H-benzo[d]imidazole-5-carboxamide]: in assay [1], the pKi was > 7.00. Moreover, in assay [2], the pIC50 is > 7.00.

As to `CCS(=O)(=O)c1ccc(CNC(=O)c2ccc3c(c2)nc(C(F)(F)F)n3Cc2cccc3c2OCO3)cc1` [I-98, 1-(benzo[d][1,3]dioxol-4-ylmethyl)-N-(4-(ethylsulfonyl)benzyl)-2-(trifluoromethyl)-1H-benzo[d]imidazole-5-carboxamide], in assay [1], the pKi was > 7.00. The pIC50 in assay [2] is > 7.00.

On to `CCS(=O)(=O)c1ccc(CNC(=O)c2ccc3c(c2)nc(C(F)(F)F)n3Cc2cccc(C(=O)OC)c2)cc1` [I-99, methyl 3-((5-((4-(ethylsulfonyl)benzyl)carbamoyl)-2-(trifluoromethyl)-1H-benzo[d]imidazol-1-yl)methyl)benzoate], for which, in assay [1], the pKi was > 7.00. In addition, the pIC50 in assay [2] is 6.00 to 7.00.

For `CCS(=O)(=O)c1ccc(CNC(=O)c2ccc3c(c2)nc(C(F)(F)F)n3Cc2cncc3[nH]ccc23)cc1` [I-100, 1-((1H-pyrrolo[2,3-c]pyridin-4-yl)methyl)-N-(4-(ethylsulfonyl)benzyl)-2-(trifluoromethyl)-1H-benzo[d]imidazole-5-carboxamide], the pKi in assay [1] is > 7.00. This molecule also gave a pIC50 in assay [2] of 6.00 to 7.00.

For `CCS(=O)(=O)c1ccc([C@H](CO)NC(=O)c2ccc3c(c2)nc(C2CC2)n3Cc2cccc3c2OC(C)(C)C3)cc1` [I-101, (R)-2-cyclopropyl-1-((2,2-dimethyl-2,3-dihydrobenzofuran-7-yl)methyl)-N-(1-(4-(ethylsulfonyl)phenyl)-2-hydroxyethyl)-1H-benzo[d]imidazole-5-carboxamide], in assay [1], the pKi is > 7.00. For the same molecule, the pIC50 in assay [2] is < 6.00.

With `CCS(=O)(=O)c1ccc([C@H](CO)NC(=O)c2ccc3c(c2)nc(C2CC2)n3Cc2cccc3c2OCC3)cc1` [I-102, (R)-2-cyclopropyl-1-((2,3-dihydrobenzofuran-7-yl)methyl)-N-(1-(4-(ethylsulfonyl)phenyl)-2-hydroxyethyl)-1H-benzo[d]imidazole-5-carboxamide], in assay [1], the pKi is > 7.00. For the same molecule, the negative logarithm of the IC50 (pIC50) in assay [2] was > 7.00.

`CCS(=O)(=O)c1ccc(CNC(=O)c2ccc3c(c2)nc(C2CC2)n3Cc2cc(OC)cc(OC)c2)cc1` [I-103, 2-cyclopropyl-1-(3,5-dimethoxybenzyl)-N-(4-(ethylsulfonyl)benzyl)-1H-benzo[d]imidazole-5-carboxamide]: the pKi in assay [1] was > 7.00. Moreover, the negative logarithm of the IC50 (pIC50) in assay [2] is 6.00 to 7.00.

Turning to `CCS(=O)(=O)c1ccc(CNC(=O)c2ccc3c(c2)nc(C2CC2)n3Cc2ccc(OC(F)(F)F)cc2)cc1` [I-104, 2-cyclopropyl-N-(4-(ethylsulfonyl)benzyl)-1-(4-(trifluoromethoxy)benzyl)-1H-benzo[d]imidazole-5-carboxamide], the pKi in assay [1] was > 7.00. Further, the negative-log IC50 (pIC50) in assay [2] was < 6.00.

With `CCS(=O)(=O)c1ccc(CNC(=O)c2ccc3c(c2)nc(C2CC2)n3Cc2ccccc2OC(F)(F)F)cc1` [I-106, 2-cyclopropyl-N-(4-(ethylsulfonyl)benzyl)-1-(2-(trifluoromethoxy)benzyl)-1H-benzo[d]imidazole-5-carboxamide], the pKi in assay [1] is > 7.00. For the same molecule, in assay [2], the pIC50 is 6.00 to 7.00.

As to `CCS(=O)(=O)c1ccc(CNC(=O)c2ccc3c(c2)nc(C2CC2)n3Cc2cccc(OC(F)(F)F)c2)cc1` [I-109, 2-cyclopropyl-N-(4-(ethylsulfonyl)benzyl)-1-(3-(trifluoromethoxy)benzyl)-1H-benzo[d]imidazole-5-carboxamide], in assay [1], the negative-log Ki (pKi) is > 7.00. Further, in assay [2], the negative logarithm of the IC50 (pIC50) was > 7.00.

Take `CCS(=O)(=O)c1ccc(CNC(=O)c2ccc3c(c2)nc(C2CC2)n3Cc2cccc(OC(F)F)c2)cc1` [I-113, 2-cyclopropyl-1-(3-(difluoromethoxy)benzyl)-N-(4-(ethylsulfonyl)benzyl)-1H-benzo[d]imidazole-5-carboxamide]: the pKi in assay [1] is > 7.00. Besides, in assay [2], the pIC50 is > 7.00.

Take `CCS(=O)(=O)c1ccc(CNC(=O)c2ccc3c(c2)nc(C2CC2)n3Cc2cc(OC)cc(OC(F)(F)F)c2)cc1` [I-115, 2-cyclopropyl-N-(4-(ethylsulfonyl)benzyl)-1-(3-methoxy-5-(trifluoromethoxy)benzyl)-1H-benzo[d]imidazole-5-carboxamide]: the pKi in assay [1] was > 7.00. Further, the pIC50 in assay [2] is > 7.00.

In the case of `CCS(=O)(=O)c1ccc(CNC(=O)c2ccc3c(c2)nc(C2CC2)n3[C@@H](C)c2cccc3c2OC(F)(F)O3)cc1` [I-116, (S)-2-cyclopropyl-1-(1-(2,2-difluorobenzo[d][1,3]dioxol-4-yl)ethyl)-N-(4-(ethylsulfonyl)benzyl)-1H-benzo[d]imidazole-5-carboxamide], in assay [1], the pKi was > 7.00. For the same molecule, the negative logarithm of the IC50 (pIC50) in assay [2] was > 7.00.

`CCS(=O)(=O)c1ccc(CNC(=O)c2ccc3c(c2)nc(C2CC2)n3Cc2cccc3c2OC(C)(C)C3)cc1` [I-118, 2-cyclopropyl-1-((2,2-dimethyl-2,3-dihydrobenzofuran-7-yl)methyl)-N-(4-(ethylsulfonyl)benzyl)-1H-benzo[d]imidazole-5-carboxamide]: the pKi in assay [1] was > 7.00. The pIC50 in assay [2] is < 6.00.

With `CCS(=O)(=O)c1ccc(CNC(=O)c2ccc3c(c2)nc(C2CC2)n3Cc2cccc(OC)c2OC)cc1` [I-119, 2-cyclopropyl-1-(2,3-dimethoxybenzyl)-N-(4-(ethylsulfonyl)benzyl)-1H-benzo[d]imidazole-5-carboxamide], in assay [1], the pKi is > 7.00. Besides, the pIC50 in assay [2] was > 7.00.

On to `O=C(O)CC1CCC(CNC(=O)c2ccc3c(c2)nc(C(F)(F)F)n3Cc2cccc3c2OC(F)(F)O3)CC1` (stereo not shown) [I-120, 2-(4-((1-((2,2-difluorobenzo[d][1,3]dioxol-4-yl)methyl)-2-(trifluoromethyl)-1H-benzo[d]imidazole-5-carboxamido)methyl)cyclohexyl)acetic acid], for which, in assay [1], the pKi is > 7.00. In assay [2], this molecule had a pIC50 of 6.00 to 7.00.

`N#Cc1ccc([C@H](CO)NC(=O)c2ccc3c(c2)nc(C(F)(F)F)n3Cc2cccc3c2OC(F)(F)O3)cc1` [I-122, (R)-N-(1-(4-cyanophenyl)-2-hydroxyethyl)-1-((2,2-difluorobenzo[d][1,3]dioxol-4-yl)methyl)-2-(trifluoromethyl)-1H-benzo[d]imidazole-5-carboxamide]: in assay [1], the pKi is > 7.00. The pIC50 in assay [2] is > 7.00.

Regarding `CCS(=O)(=O)c1ccc([C@H](CO)NC(=O)c2ccc3c(c2)nc(C(F)(F)F)n3Cc2cccc3c2OC(F)(F)O3)c(F)c1` [I-123, (R)-1-((2,2-difluorobenzo[d][1,3]dioxol-4-yl)methyl)-N-(1-(4-(ethylsulfonyl)-2-fluorophenyl)-2-hydroxyethyl)-2-(trifluoromethyl)-1H-benzo[d]imidazole-5-carboxamide], the pKi in assay [1] is > 7.00. Further, the pIC50 in assay [2] was > 7.00.
